Measurements as given in publication PMC10993450, “New benzimidazole derivative compounds with in vitro fasciolicidal properties” (Parasites & Vectors, 2024).
“Also recorded” adds a separate entry of the source. Like-named read-outs stand apart in the source and are kept apart here.

Key:
[1] = tested on: Fasciola hepatica adults (ABZ-resistant isolate); experiment: Adult viability test (AVT), motility inhibition; type: cell-based; settings: 10 µM, ABZ-resistant isolate; for inhibition at 10 µM: Fasciola hepatica, relative to motility score at 24 h
Description: The adult viability test was based on a previous study carried out by Kirchhofer et al. with minor modifications. In brief, adult F. hepatica flukes were recovered from bile ducts of infected sheep with the resistant isolate. Flukes were quickly washed with 0.9% (w/v) NaCl and placed in six-well plates (Costar, Spain) with RPMI 1640 culture medium (Sigma-Aldrich®, Spain) supplemented with antibiotics (50 μg/mL streptomycin and 50 IU/mL penicillin; Sigma-Aldrich®, Spain) and 80 μg/mL of a hemin solution at 37 °C.
To monitor the anthelmintic effect of BZDs and the commercial drug ABZ, two flukes per well were incubated up to 72 h at a final concentration of 10 µM. DMSO at 0.5% was used as negative control. The individual movement of each fluke was examined using an inverted microscope at 24, 48, and 72 h. The activity of the compounds was estimated as motility inhibition, using a scale of fluke viability ranging from 3 (normal movements) to 0 (death, no movement observed for 2 min). All tests were repeated at least twice at different days.
Additionally, the percentage of motility inhibition for each compound was calculated from […] to 48 and 72 h after treatment using the following formula: 100 × (mean of the motility score of BZD at 24 h − mean of the motility score of BZD at 48 or 72 h)/(mean of the motility score of BZD at 24 h).
For the AVT, statistical analysis was performed using GraphPad Prism version 8.0.2. The normality of the motility inhibition scores was assessed using the Shapiro–Wilk test. Then, differences among scores at the three time points (24, 48, and 72 h) were evaluated using the Friedman test. In cases where significant differences were observed, post hoc analysis was conducted using the Nemenyi test for multiple comparisons. Comparisons with a P value < 0.05 were considered statistically significant.

[2] = Intestinal tolerability assay on murine intestinal organoids; type: cell-based, mouse; settings: C57BL/6, mouse, murine small-intestinal organoids, 72 h
Description: The murine intestinal organoid cultures were prepared following Stemcell Technologies™ protocols (https://www.stemcell.com/intestinal-epithelial-organoid-culture-with-intesticult-organoid-growth-medium-mouse-lp.html#protocols). Small intestine sections from C57BL/6 mice were excised, washed with ice-cold PBS, minced, and 2 mm segments were washed extensively. The segments were treated with Gentle Cell Dissociation Reagent (Stemcell Technologies™, Canada), resuspended in ice-cold PBS with 0.1% BSA and filtered. This process was repeated four times, resulting in four fractions. Cells from each fraction were centrifuged, washed, and resuspended in ice-cold DMEM/F12 supplemented with glutamine and HEPES 15 mM. Each fraction was mixed with Geltrex GFR LDEV-free (Gibco, Thermo Fisher Scientific, USA) and IntestiCult™ Organoid Grow Medium Mouse (Stemcell Technologies™, Canada), added to a 24-well plate and incubated at 37 °C for 10 min for matrix polymerization. The organoids were cultured in IntestiCult™ Organoid Grow Medium Mouse, with medium changes every 2 days and splitting after 7 days.
For intestinal tolerability assays, selected hit compounds were tested in mouse intestinal organoids at 25 and 50 µM final concentrations. The protocol, based on a previous work, involved the addition of Gentle Cell Dissociation Reagent (Stemcell Technologies™, Canada) on matrix domes, the disruption of the matrix, and the incubation the suspension. After centrifugation, cells were resuspended in DMEM/F12 supplemented with glutamine and HEPES 15 mM and centrifugated again. The pellet was resuspended in a mix of Geltrex GFR LDEV-free and IntestiCult™ Organoid Grow Medium Mouse. The mix was plated in 384-well plates, and after 4 days, mature organoids were exposed to the compounds. The positive control was hydrogen peroxide (0.15% v/v), and the negative control was DMSO (0.2%). Viability after 72 h was assessed using the alamarBlue assay.

[3] = tested on: Fasciola hepatica eggs (ABZ-susceptible isolate); experiment: Egg hatch test (EHT), ABZ-susceptible isolates; type: cell-based; settings: mean ± SEM; for % Ovicidal activity: ABZ-susceptible isolate; for killing at 5 µM: Fasciola hepatica, read-out: % Ovicidal activity susceptible isolate
Description: Eggs were recovered from gallbladders of cattle naturally infected with F. hepatica at the municipal slaughterhouse of León (Spain). For this, the bile of the gallbladders was filtered through sieves of different diameter size pores (500, 150, and 20 µm) using pressurized tap water. Eggs retained on the 20 µm pore size sieve were collected and stored at 4 °C in darkness until required within a maximum period of 2 months.
The susceptibility of the isolates to ABZ was confirmed by the egg hatch test (EHT) using an ABZ discriminant dose (DD) of 0.5 µM [23]. The technique is described in more detail below.
The in vitro anthelmintic activity of a total of 70 BZDs was initially tested on F. hepatica eggs recovered from gallbladders of cattle naturally infected with ABZ-susceptible isolates. The first screening was performed using a fixed concentration of 50 µM. […] Therefore, only BZDs with ovicidal activities over 80% progressed to the next assays at 10 µM. […] At this last concentration, the ovicidal effect of ABZ, ABZSO, and OXF was also evaluated.
The in vitro EHT described in the current study was based on previous studies. Briefly, 100–120 eggs were incubated in 990 µL of water and 10 μL of each working solution at 25 °C in the dark for a period of 12 h. After incubation, eggs were gently washed with tap water three times to facilitate compound removal and kept in darkness at 25 °C for 14 days. After this period, eggs were exposed to light for 2 h to stimulate the hatching of eggs. Then, hatched and unhatched eggs were evaluated and counted using an optical microscope. The term “hatched eggs” includes both hatched and embryonated eggs. Negative control eggs were incubated with 10 μL of DMSO in 990 μL of water, reaching a maximum DMSO concentration of 1% (v/v), while ABZ at 0.5 µM was used as positive control. Each compound at a specific concentration was tested in triplicate in the same EHT and repeated at least two different days.
With the aim to characterize the susceptibility of isolates from naturally infected cattle, the drug used in the EHT was ABZ, tested at a discriminant dose of 0.5 μM. Drug susceptibility is assumed when the ovicidal activity is over 70%, resistance when is lower than 40%, and a suspicion of resistance when activity is between these values at 0.5 μM.
The efficacy of each compound and drug was calculated as its ovicidal activity following the formula below: Ovicidal activity%=100×%eggs hatched in negative control-%egg hatched after drug incubation/%egg hatched in control.

[4] = tested on: Teladorsagia circumcincta eggs; settings: type II BZDs; read-out: IC50 against T. circumcincta eggs; cited from earlier work
[5] = read-out: % Adult motility inhibition 48 h
[6] = read-out: % Adult motility inhibition 72 h

Compound	Motility inhibition of adults after 72 h of incubation (in words; significance vs 24 h) [1]	inhibition at 10 µM [1, 5] [%]	inhibition at 10 µM [1, 6] [%]	viability at 72 h, 25 µM [2] [%]	viability at 72 h, 50 µM [2] [%]	% Ovicidal activity ([3]; 10 µM) [%]	% Ovicidal activity ([3]; 10 µM, listed as BDZ-31) [%]	% Ovicidal activity ([3]; 10 µM, listed as BZD-31) [%]	% Ovicidal activity ([3]; 50 µM) [%]	% Ovicidal activity ([3]; 50 µM, listed as BZD-31)	killing at 5 µM [3] [%]	IC50 [4] [µM]	% Ovicidal activity ([3]; 50 µM, listed as BZD-46)	% Ovicidal activity ([3]; 10 µM, listed as BZD-56) [%]	% Ovicidal activity ([3]; 50 µM, listed as BZD-56)	% Ovicidal activity ([3]; 10 µM, listed as BZD-59) [%]	% Ovicidal activity ([3]; 50 µM, listed as BZD-59)
Cc1ccc2[nH]c(NCc3cccs3)nc2c1 [BZD31]	significant reduction	35.7	38.1	60.5	52.4	99.58 ± 00.26	99.5	≥ 80	100.00 ± 0.00	higher than 80%	74	–	–	–	–	–	–
Cc1ccc2[nH]c(NC(=O)c3ccccc3)nc2c1 [BZD46]	nor those with ABZSO or BZD46, exhibited any significant motility inhibition	28.6	28.6	99.7	> 87	83.90 ± 02.87	–	–	98.59 ± 0.94	–	71.2 ± 9.91	~1	higher than 80%	–	–	–	–
COc1ccc2[nH]c(NC(=O)c3ccccc3)nc2c1 [BZD56]	significant reduction	53	51.5	82.5	> 87	93.93 ± 01.90	–	–	99.58 ± 0.22	–	< 90	~1	–	≥ 80	higher than 80%	–	–
O=C(Nc1nc2cc(Cl)ccc2[nH]1)c1ccccc1 [BZD59]	high motility inhibition; also recorded: significant reduction; also recorded: most potent compound; also recorded: most significant reduction in worm motility	46.7	60	82.7	56.7	91.16 ± 02.58	–	–	100.00 ± 0.00	–	73.5 ± 8.88	~1	–	–	–	≥ 80	higher than 80%
